Assay [1] has as its system soybean nodulation. Nature of the assay: Nodule numbers of soybean plants treated with KNO3 (incl. grafted plants). Type of assay: in vivo, Glycine max. The protocol: (§1) Soybean (Glycine max) lines used include the wild type Williams and its isogenic supernodulating nark mutant lines, nod4 and nod3-7 and the wild type Bragg and its isogenic hypernodulating nark mutant line, nts1116. Plants were grown in controlled glasshouse conditions (28° C./26° C. day/night, 16 hour day) in autoclaved pots and vermiculite where sterile growing conditions were required. Seeds requiring sterilisation were treated with 70% ethanol, 3% H2O2 for 1 min, followed by several rinses with water. Plants were watered as required with a modified nutrient solution lacking nitrogen (Herridge, 1982). Plants were inoculated with approximately OD600 0.01 Bradyrhizobium japonicum CB1809 or the corresponding NF mutant nodU grown in yeast-mannitol broth (YMB) at 28° for two days. For nitrate treatments, plants were watered with the indicated solutions of KNO3 every two days. For grafting experiments, reciprocal grafting was carried out 8 d after sowing and the graft unions were allowed to recover for 6 d before B. japonicum inoculation. Nodulation was scored three weeks after inoculation.
Soybean plants were treated with either 0, 2, 5, 10 or 15 mM KNO3 for 2 days prior to, and for 2 weeks following, rhizobia inoculation. The treated plants were then harvested simultaneously for RT-qPCR and nodule count studies. […]

Assay [2] deals with CLE30, CLE60 and CLE80 gene expression in soybean root. Nature of the assay: RT-qPCR of CLE gene expression in soybean roots after nitrogen source treatment. It counts as in vivo, Glycine max. The conditions noted are these: for expression of CLE30 and CLE80 in roots / CLE60 expression in roots: 10 mM for two weeks; for expression of CLE30 and CLE80 in roots: relative to KCl control; for CLE60 expression in roots: relative to control. The protocol:
FIG. 15. To test if CLE60 (GmNIC1) is induced by alternative nitrogen sources we treated soybeans with 10 mM solutions of the following chemicals for two weeks prior to harvesting root tissue to analyse gene expression: Ammonium Chloride (NH4Cl), Potassium Nitrate (KNO3) and Potassium Chloride control (KCl).
as §1
For gene expression analyses, tissue was snap frozen and homogenized in liquid nitrogen using a mortar and pestle. RNA was extracted using TRIzol reagent according to the manufacturer's instructions (Invitrogen). DNAse treatment (Fermentas, Ontario) was performed on 1 μg of RNA in the presence of MgCL2. cDNA was synthesised with SuperScript III (Invitrogen) from 0.5 μg DNAse treated RNA. RT-qPCR was conducted using an ABI 7900HT cycler in 384 well plates with SYBR green fluorescence detection. All reactions were performed in duplicate for at least three biological replicates using intron-spanning primers where possible and a target amplicon of approximately 100 bp (full primer sequences are included in Table 2). Gene expression values were calculated relative to ATP synthase after normalisation for PCR efficiency and plot correlation (R2) values of each primer pair as determined by LinRegPCR 7.5 (Ramakers et al., 2003).
In a preliminary study to determine if nitrate can induce the expression of the soybean CLE genes, root tissue was harvested after treatment with either 0 mM (water control) or 10 mM KNO3 for two weeks. […] A more thorough study to identify the induction of CLE60 expression by nitrate was subsequently performed using, root tissue harvested at 0, 8 or 24 h after the commencement of the above treatments.
Soybean plants were treated with either 0, 2, 5, 10 or 15 mM KNO3 for 2 days prior to, and for 2 weeks following, rhizobia inoculation. The treated plants were then harvested simultaneously for RT-qPCR and nodule count studies.

Assay [3] concerns Medicago truncatula nodulation. The conditions noted are these: cited from earlier work.
Assay [4] deals with soybean nodulation. The assay is described as follows: Over-expression of CLE genes in transgenic soybean hairy roots, nodule number (Example 1). It counts as in vivo, Glycine max. As to conditions: for NARK/SUNN/HAR1 dependent inhibition / Systemic activity: Glycine max; for nodulation (nodule number) on over-expression: vs vector-only control. The protocol:
as §1
The full length CDS of CLE30, CLE60 and CLE80 was directionally cloned into the pKANNIBAL vector for expression of RNAi constructs (Wesley et al., 2001). Pfu polymerase (Stratagene, La Jolla, Calif.) was used to amplify PCR products incorporating restriction nuclease sites from cDNA samples shown to express the target gene. XhoI/EcoRI (for) and KpnI (rev) restriction sites were included in the primer sequences depending on internal restriction sites of each gene (full primer sequences are included in Table 2). Likely clones were confirmed by direct DNA sequencing and capillary separation. Constructs were sub-cloned into p15SRK2 or pM1KCK1 integration vectors (A. Kereszt, unpublished) as a NotI fragment before tri-parental mating to introduce the constructs into Agrobacterium rhizogenes K599. For transgenic root verification in the CLE60 over-expression experiments the DsRed reporter was subcloned into pM1KCK1 from pHairyRed, which is a modified version of pCAMBIA (M-H Lin, P M Gresshoff, B J Ferguson, unpublished). Tri-parental mating was used to introduce DsRed into A. rhizogenes K599 carrying the CLE60 construct. A. rhizogenes were subsequently used for the induction of transgenic soybean hairy roots according to Kereszt et al (2007).
To determine if the soybean CLE peptides regulate nodulation in a NARK-dependent manner, a reverse-genetics approach using a hairy-root transformation system was used. Over-expression of a systemic Q signal would be expected to inhibit nodulation, even in non-transformed roots. To test this, the complete CDS of CLE30, CLE60 or CLE80 was cloned into the pKANNIBAL vector for the expression of efficient RNAi constructs (Wesley et al., 2001). However, to generate over-expressing constructs, the antisense construct was omitted and the Pdk intron of pKANNIBAL was left intact. Previous studies have shown the inclusion of an intron can lead to higher and more consistent expression levels in transgenic plants (Norris et al., 1993).
Tri-parental mating was used to integrate the constructs into Agrobacterium rhizogenes K599 which induces the formation of transgenic hairy roots in soybean (Kereszt et al., 2007).

The mark [5] stands for this setting: nod4 supernodulation nark mutant plants.
Setting [6] is: wild-type (Williams) soybean, transgenic hairy roots.

Entries after “also recorded” stand apart in the source; their conditions may differ.

With `O=[N+]([O-])[O-].[K+]` [KNO3, Potassium Nitrate], the “nodule numbers with KNO3 concentration” value with soybean nodulation [1] (0, 2, 5, 10 or 15 mM KNO3, 2 weeks after inoculation) is “reduced in an inverse manner”. For the same molecule, the “nodule numbers of grafted plants” value in the assay on soybean nodulation [1] (5 mM or 10 mM KNO3, WT scion, wild-type rootstock compared to nod4 mutant rootstock) is listed as “reduced significantly”. In addition, the “CLE30 expression in roots” value in assay [2] (10 mM KNO3 for two weeks vs 0 mM water control) was “unchanged”. For the same molecule, in assay [2], the “expression of CLE30 and CLE80 in roots” value is on record as “not that of CLE80 or CLE30”; the “CLE60 expression in roots” value is given as “significantly induced expression of CLE60”. Moreover, the “KNO3 level at which CLE60 was significantly induced (as low as)” value in assay [2] (2 days prior to and 2 weeks following rhizobia inoculation) is 2 mM.

Turning to `Cl.N` [NH4Cl, Ammonium Chloride], in assay [2], the “expression of CLE30 and CLE80 in roots” value was “did not affect expression”; the “CLE60 expression in roots” value is listed as “induced expression of CLE60”.

On to “CLE12: Medicago truncatula CLE peptide reported to reduce nodulation (Mortier et al., 2010) (LEGGSNIDSQRLLHELMVDRIKQKRSRTDLEDKAVPGDRLSPGGPNHIHN; UniProt G7ZZZ3 32-81, looked up)”, for which, in assay [3], the NARK/SUNN/HAR1 dependent inhibition entry is “partial” and the Systemic activity entry is reported as “yes”.

With “CLE13: Medicago truncatula CLE peptide reported to reduce nodulation (Mortier et al., 2010) (LRDHPLIHKNIDSRSLLQKLRIHISNHKQVRDISGDRLSPAGPDPQHNGRSPPRK; UniProt G7JV15 30-84, looked up)”, in assay [3], the NARK/SUNN/HAR1 dependent inhibition result is reported as “partial” and the Systemic activity result is “yes”.

B1: CLE80: Glycine max CLE protein, SEQ ID NO:7; rhizobia inoculation induced CLE (protein)
chain: MGNTSATLVPILALIMFSTFFMTLQARSLHGHNPLFAHKKVVDIQNFLHKSGIHLSKRVRIPFGDDLPLAPADRLAPGGPDPQHNVRAPPRKP
modifications: Glycine max
B1: in the assay on soybean nodulation [4], the NARK/SUNN/HAR1 dependent inhibition result was “yes” and the Systemic activity entry is “yes”. The “nodulation (nodule number) on over-expression” value (shortened to “nodulation … on over-expression”) in the assay with soybean nodulation [4] (setting [5]) is listed as “no reduction in the nodule numbers; also recorded: complete lack of nodule inhibition; also recorded: nodule numbers were not reduced”. Further, in the assay with soybean nodulation [4] (setting [6]), the “nodulation … on over-expression” value is “completely abolishes soybean nodulation; also recorded: completely eliminated nodulation; also recorded: eliminated nodulation completely; also recorded: nodules were eliminated”.

B2: CLE60: Glycine max CLE protein, SEQ ID NO:6; nitrate induced CLE acting locally in the root (protein)
chain: MLEALGEMANAKQVLCLILLVLLFSKLESRSLEAFIEGKKTLAKGCSRELIEKSQLLKASFAKATTRFTNPRVSKRLSPGGPDQKHH
modifications: Glycine max
notes: nitrate induced CLE acting locally in the root
For the molecule B2, in the assay with soybean nodulation [4], the NARK/SUNN/HAR1 dependent inhibition entry is reported as “yes” and the Systemic activity entry is recorded as “no”. In addition, the “nodulation … on over-expression” value in the assay with soybean nodulation [4] (setting [5]) is “no corresponding reduction in nodulation; also recorded: nodule numbers were not reduced”. In addition, the reduction in nodulation in the assay on soybean nodulation [4] (over-expression, wild-type soybean) is around 50%. Further, the “nodulation … on over-expression” value with soybean nodulation [4] (setting [6]) is listed as “only partially reduces nodulation; also recorded: reduced nodulation by approximately half; also recorded: nodules were reduced or partially eliminated”.

These data come from patent US20150183839A1, “SOYBEAN NODULATION REGULATORY PEPTIDES AND METHODS OF USE” (priority 2010, published 2015).
